This note sets out measurements from patent EP4596547A1, “HETEROCYCLIC COMPOUND AND HARMFUL ARTHROPOD-CONTROLLING COMPOSITION CONTAINING SAME” (priority 2022, dated 2024).

Holding throughout (format): in vivo
The subject of assay [1] is cotton aphids (Aphis gossypii). Nature of the assay: Test method 11: foliar spray on cucumber seedlings inoculated with cotton aphids (formulation per Formulation Example 5). The note with it: 120 h, sprayed 10 mL/seedling one day after inoculation, after 5 days, 25°C, read-out: control value.
Assay [2] deals with common cutworm (Spodoptera litura). In words: Test method 3: sprayed cabbage foliage cut out, second instar larvae of common cutworm released. The note with it: foliar, 120 h, sprayed 20 mL/seedling, five second instar larvae, after 5 days, 25°C. How it is done: (§1) A test compound is formed into a formulation according to the method described in Formulation Example 1, and water containing 0.03% by volume of Shindain (registered trademark) is added thereto to prepare a diluted solution containing the test compound at a predetermined concentration.
A cabbage (Brassicae oleracea) seedling (2 to 3 true leaf stage) planted in a container is sprayed with the diluted solution at a rate of 20 mL/seedling. Thereafter, the foliage portion of the seedling is cut out and placed in a container on which filter paper is laid. Thereto are released five second instar larvae of common cutworm (Spodoptera litura). After 5 days, the number of surviving insects is counted, and the mortality is determined from the following equation. [formula]

For assay [3], the system named is diamondback moth (Plutella xylostella). In words: Test method 4: sprayed cabbage foliage cut out, second instar larvae of diamondback moth released. To be noted: foliar, 120 h, sprayed 20 mL/seedling, five second instar larvae, after 5 days, 25°C. How it is done:
as §1
A cabbage (Brassicae oleracea) seedling (2 to 3 true leaf stage) planted in a container is sprayed with the diluted solution at a rate of 20 mL/seedling. Thereafter, the foliage portion of the seedling is cut out and placed in a container on which filter paper is laid. Thereto are released five second instar larvae of diamondback moth (Plutella xylostella). After 5 days, the number of surviving insects is counted, and the mortality is determined from the following equation. [formula]

The test system of assay [4] is cotton aphids (Aphis gossypii). In words: Test method 1: foliar spray on cucumber seedlings inoculated with cotton aphids (formulation per Formulation Example 1). To be noted: 120 h, 500 ppm, sprayed 10 mL/seedling one day after inoculation, surviving insects examined after 5 days, 25°C, read-out: control value.
For another assay, the system named is Musca domestica. Nature of the assay: Test method 8: container inner surface coated with test compound, Musca domestica. To be noted: 24 h, 40 mg/m^2 (800 ppm acetone solution), five adult female, 1 days, 25°C. How it is done:
An acetone solution prepared such that the amount of the test compound is 800 ppm is poured into a container having an internal volume of 20 mL, and the inner surface of the container is uniformly coated such that the amount of the test compound is 40 mg/m^2, and then dried.
Five adult female Musca domestica are placed in the container, and the lid is closed. After a lapse of a predetermined time, the state of Musca domestica is examined, and the mortality is determined. The mortality is calculated by the following equation. [formula]

Assay [5] relates to diamondback moth (Plutella xylostella). In words: Test method 10: sprayed cabbage seedling, third instar larvae of diamondback moth released. The note with it: 144 h, sprayed 20 mL/seedling, 10 third instar larvae, after 6 days, 25°C. The procedure: (§2) A test compound is formed into a formulation according to the method described in Formulation Example 5, and water containing 0.03% by volume of Shindain (registered trademark) is added thereto to prepare a diluted solution containing the test compound at a predetermined concentration.
A cabbage (Brassicae oleracea) seedling (3 to 4 true leaf stage) planted in a container is sprayed with the diluted solution at a rate of 20 mL/seedling. Thereafter, 10 third instar larvae of diamondback moth (Plutella xylostella) are released. After 6 days, the number of surviving insects is counted, and the mortality is determined from the following equation. [formula]

The subject of a further assay is Culex pipiens pallens. In words: Test method 12: last-instar larvae of Culex pipiens pallens released into diluted solution. The note with it: 24 h, 30 last-instar larvae, one day later, 25°C. The procedure:
The test compound is formulated according to the method described in Formulation Example 1, and water is added thereto to prepare a diluted solution containing the test compound at a predetermined concentration. 30 last-instar larvae of Culex pipiens pallens are released into the diluted solution, and the state of the larvae of Culex pipiens is examined one day later to determine the Mortality. The mortality is calculated by the following equation. [formula]

For the next assay, the system named is Aphis gossypii. In words: Test method 2: soil irrigation of cucumber seedlings, later inoculated with Aphis gossypii. The note with it: 144 h, irrigated 5 mL/seedling, inoculated after 7 days, surviving insects examined after 6 days, 25°C, read-out: control value. The procedure:
The test compound is formulated according to the method described in Formulation Example 5, and water is added thereto to prepare a diluted solution containing the test compound at a predetermined concentration. A cucumber (Cucumis sativus) seedling (second true leaf stage) planted in a container is irrigated with the diluted solution at a rate of 5 mL/seedling. After 7 days, the leaf surface of this seedling is inoculated with about 30 Aphis gossypii (whole stage). After 6 days, the number of surviving insects is examined, and the control value is determined by the following formula. [formula] • Characters in the formula represent the following meanings. • Cb: number of test insects in a non-treated section • Cai: number of surviving insects in a non-treated section at the time of investigation • Tb: number of test insects in a treated section • Tai: number of surviving insects in a treated section at the time of investigation Herein, the non-treated section means a section that is subjected to the same operation as that of the treated section except that the test compound is not used.

Assay [6] relates to common cutworm (Spodoptera litura). Nature of the assay: Test method 9: sprayed cabbage seedling, third instar larvae of common cutworm released. The note with it: 144 h. The procedure: as §2
A cabbage (Brassicae oleracea) seedling (3 to 4 true leaf stage) planted in a container is sprayed with the diluted solution at a rate of 20 mL/seedling. Thereafter, 10 third instar larvae of common cutworm (Spodoptera litura) are released. After 6 days, the number of surviving insects is counted, and the mortality is determined from the following equation. [formula]

The test system of a further assay is Blattella germanica. In words: Test method 6: container inner surface coated with test compound, Blattella germanica. To be noted: 72 h. The procedure:
An acetone solution prepared such that the amount of the test compound is 800 ppm is poured into a container having an internal volume of 50 mL, and the inner surface of the container is uniformly coated such that the amount of the test compound is 40 mg/m^2, and then dried.
Five male imagoes of Blattella germanica are placed in the container, and the lid is closed. After a lapse of a predetermined time, the state of Blattella germanica is examined, and the mortality is determined. The mortality is calculated by the following equation. [formula]

In assay [7] the test system is Haemaphysalis longicornis. Nature of the assay: Test method 7: container inner surface coated with test compound, Haemaphysalis longicornis nymphs. To be noted: 48 h, 100 mg/m^2 (2000 ppm acetone solution), five nymphs, 2 days, 25°C. How it is done:
An acetone solution prepared such that the amount of the test compound is 2000 ppm is poured into a container having an internal volume of 20 mL, and the inner surface of the container is uniformly coated such that the amount of the test compound is 100 mg/m^2, and then dried.
Five nymphs of Haemaphysalis longicornis are placed in the container, and the lid is closed. After a lapse of a predetermined time, the state of Haemaphysalis longicornis is examined to determine the mortality. The mortality is calculated by the following equation. [formula]

The test system of assay [8] is Western corn rootworm (Diabrotica virgifera virgifera). In words: whole plant or invertebrate. The note with it: 120 h. How it is done:
Each 1 mg of the test compound is dissolved in 50 µL of a mixed solution of polyoxyethylene sorbitan monococoate and acetone (5 : 95 (volume ratio)). Water containing 0.03% by volume of Shindain (registered trademark) is added thereto to prepare a diluted solution containing the test compound at a predetermined concentration.
Young seedlings of maize (Zea mays) are immersed in the diluted solution for 30 seconds. Thereafter, the two […] are placed in a petri dish (90 mm diameter), and thereto are released 10 second instar larvae of Western corn rootworm (Diabrotica virgifera virgifera). After 5 days, the number of dead insects is counted, and the mortality is determined from the following equation. [formula]

Regarding `CCSc1c(N(C)C(=O)c2ccc(C(F)(F)F)s2)nc2ccc(I)cn12` [compound 6], in [1], the mortality at 50 ppm is at least 90%. Also, the mortality at 200 ppm in assay [1] was at least 90%; in assay [5] it was at least 80%. Also, the mortality at 500 ppm in assay [2] is at least 80%; in assay [3], at least 80%; in assay [4], at least 90%. The compound also yielded a mortality at 40 mg/m2, 40 mg/m2 in the assay on Musca domestica of at least 80%. The mortality at 3.5 ppm in the assay on Culex pipiens pallens is over 90%.
As to `CCSc1c(N(C)C(=O)c2cnc(C(F)(F)F)s2)nc2ccc(I)cn12` [compound 7], the mortality at 50 ppm was at least 90% in [1] and at least 80% in [5]. Besides, the mortality at 200 ppm is at least 90% in [1] and at least 80% in [5]. Besides, the mortality at 500 ppm in assay [3] is at least 80%; in assay [4], at least 90%. In the assay with Aphis gossypii, the mortality at 1000 ppm is at least 90%. For the same compound, in the assay with Culex pipiens pallens, the mortality at 3.5 ppm is over 90%.
`CCSc1c(N(C)C(=O)c2cc(C(F)(F)F)n(C)n2)nc2ccc(I)cn12` [compound 16]: the mortality at 200 ppm in [1] is at least 90%. The mortality at 500 ppm in assay [2] was at least 80%; in assay [3] it was at least 80%; in assay [4], at least 90%. For the same compound, the mortality at 40 mg/m2, 40 mg/m2 in the assay with Musca domestica is at least 80%. In addition, the mortality at 1000 ppm in the assay on Aphis gossypii was at least 90%. In addition, the mortality at 3.5 ppm in the assay with Culex pipiens pallens is over 90%.
For the compound `CCSc1c(N(C)C(=O)c2cnn(C(F)(F)F)c2)nc2ccc(I)cn12` [compound 23], the figures for the mortality at 200 ppm in assay [1] and in assay [6] were at least 90% and at least 80%, respectively. Moreover, the mortality at 500 ppm in assay [3] is at least 80%; in assay [4], at least 90%. The compound further returned a mortality at 40 mg/m2, 40 mg/m2 in the assay with Blattella germanica of at least 80%. For the same compound, the mortality at 3.5 ppm in the assay on Culex pipiens pallens is over 90%.
For the compound `CCS(=O)(=O)c1c(N(C)C(=O)c2cnc(C(F)(F)F)s2)nc2ccc(I)cn12` [compound 40], the mortality at 50 ppm in [1] was at least 90%; in assay [5] it was at least 80%. Further, the mortality at 200 ppm in [1] was at least 90%; in [5] it was at least 80%. The mortality at 500 ppm was at least 80% in assay [2], at least 80% in [3] and at least 90% in [4]. Also, in the assay with Aphis gossypii, the mortality at 1000 ppm was at least 90%. Also, in the assay on Culex pipiens pallens, the mortality at 3.5 ppm was over 90%.
Regarding `CCS(=O)(=O)c1c(N(C)C(=O)c2cnc(C(F)(F)F)s2)nc2ccc(Br)cn12` [compound 42], in assay [1], the mortality at 50 ppm is at least 90%. In addition, the results for the mortality at 200 ppm in assay [1] and in assay [5] were at least 90% and at least 80%, respectively. Moreover, the mortality at 500 ppm in assay [3] is at least 80%; in [4], at least 90%. The mortality at 1000 ppm with Aphis gossypii is at least 90%. Moreover, in the assay with Culex pipiens pallens, the mortality at 3.5 ppm is over 90%.
`CCS(=O)(=O)c1c(N(C)C(=O)c2cnc(C(F)(F)F)s2)nc2ccc(C(F)(F)F)cn12` [compound 44]: the mortality at 50 ppm in [1] was at least 90%. Besides, the mortality at 200 ppm in assay [1] was at least 90%; in assay [5] it was at least 80%. Also, the mortality at 500 ppm in assay [3] was at least 80%; in assay [4], at least 90%. Further, the mortality at 1000 ppm with Aphis gossypii is at least 90%. The mortality at 3.5 ppm with Culex pipiens pallens was over 90%.
Take `CC[S+]([O-])c1c(N(C)C(=O)c2cnc(C(F)(F)F)s2)nc2cc(I)ccn12` (centres unmarked) [compound 45]: in [1], the mortality at 50 ppm was at least 90% and the mortality at 200 ppm is at least 90%. For the same compound, in assay [4], the mortality at 500 ppm was at least 90%. This compound displayed a mortality at 100 mg/m2, 100 mg/m2 in assay [7] of at least 80%. Also, the mortality at 3.5 ppm with Culex pipiens pallens was over 90%.
For `CCS(=O)(=O)c1c(N(C)C(=O)c2cnc(C(F)(F)F)s2)nc2cc(Br)ccn12` [compound 48], in assay [1], the mortality at 50 ppm is at least 90%. The mortality at 200 ppm in assay [1] is at least 90%; in [5], at least 80%. The mortality at 500 ppm in assay [2] is at least 80%; in assay [3] it was at least 80%; in assay [4], at least 90%. For the same compound, in the assay on Culex pipiens pallens, the mortality at 3.5 ppm was over 90%.
On to `CCS(=O)(=O)c1c(N(C)C(=O)c2cc(C(F)(F)F)n(C)n2)nc2ccc(I)cn12` [compound 52], for which the mortality at 200 ppm in assay [8] is at least 80%; in assay [1], at least 90%; in assay [5], at least 80%. The figures for the mortality at 50 ppm in assay [1] and in assay [5] were at least 90% and at least 80%, respectively. Moreover, the values for the mortality at 500 ppm in assay [3] and in [4] were at least 80% and at least 90%, respectively. This compound also had a mortality at 40 mg/m2, 40 mg/m2 in the assay with Musca domestica of at least 80%. For the same compound, the mortality at 1000 ppm in the assay with Aphis gossypii is at least 90%. Moreover, the mortality at 3.5 ppm in the assay on Culex pipiens pallens is over 90%.
